In patent US7598028B2, “Compositions and methods for detecting and treating prostate disorders” (The Regents of the University of Michigan, priority 2006, dated 2009):

Legend:
Assay type in all cases: cell-based, human
N15C6 cells = test: Migratory/invasive response to CXCL5, N15C6 (contemplated); settings: 2 hours pre-treatment: 100 nM wortmannin, 20 uM LY294002a or 10 mM tyrphostin A9
Procedure: (§1) PC3 cells invaded through Matrigel in response to both CXCL5 and CXCL12. In experiments conducted during the development of embodiments for the present invention, the effect for CXCL12 was abrogated when the cells were pre-treated with antibody against the CXCR4 receptor but not when the cells were treated with the IgG isotype control. […] It is contemplated that PI3K-mediated FAK activation is involved in CXCL5-stimulated epithelial cell migration. Protein purified from cells exposed to CXCL5 using Western blot analysis and antibodies to FAK, Crk, p130Cas, and the phospho-forms of these proteins will be examined. It is contemplated that PI3K signaling involvement in the migratory/invasive response to cytokine stimulation by CXCL5 occurs through, for example, phosphorylation of FAK, Crk and p130Cas. It is contemplated that inhibition of downstream PI3K signaling abrogates the migratory/invasive response of CXCL5. For example, it is contemplated that N15C6 or LNCaP cells pre-treated with PI3K inhibitors (e.g., 100 nM wortmannin or 20 uM LY294002a) or 10 mM of the RAFTK/Pyk2 inhibitor tyrphostin A9 for 2 hours, then exposed to CXCL5 previously shown to stimulate the migratory/invasive response, for 2 hours, abroagates the migratory/invasive response of CXCL5.

LNCaP cells = test: Migratory/invasive response to CXCL5, LNCaP (contemplated); settings: 2 hours pre-treatment: 100 nM wortmannin, 20 uM LY294002a or 10 mM tyrphostin A9
Procedure: as §1

[1] = system: LNCaP prostate epithelial cells; test: Proliferation assay (cell counts), LNCaP; settings: add back of exogenous chemokine, 96 hours
Procedure: (§2) Proliferation assays. Cellular proliferation was assessed after plating cells at 50 000 cell/well in triplicate in six-well plates and counting cells after 24 and 96 h of incubation in complete media, serum-free media or serum-free prostate stromal fibroblast conditioned media, as described previously (Macoska J A, et al., (2004) Cancer Genet. Cytogenet. 154, 36-43; incorporated herein by reference in its entirety). Averages and standard deviations of cell number were calculated for each time point under each media condition. To assess the effects of exogenous CXCL12 on cellular proliferation, recombinant human SDF1 alpha/CXCL12 (R & D Systems, 350-NS) was added at the desired concentration in 1 mL SF HIE (or 1 mL SF HIE alone for control) to each well. The cells were counted at 24 and 96 h growth and re-fed at 48 and 72 h growth. Cell counts were normalized to 50 000 cells at 24 h to account for any plating discrepancies.
(§3) Proliferation Assays. Cellular proliferation was assessed after plating cells at 50,000 cell/well in triplicate in six well plates and counting cells after 24 and 96 hours of incubation as described previously (see, e.g., Macoska J A, et al., 2004 Cancer Genet. Cytogenet. 154, 36-43; incorporated herein by reference in its entirety). To assess the effects of exogenous CXCL12 on cellular proliferation, recombinant human SDF1 alpha/CXCL12 (R&D Systems, 350-NS) was added at the desired concentration in 1 ml SF HIE (or 1 ml SF HIE alone for control) to each well. The cells were re-fed at 48 and 72 hours growth and counted at 24 and 96 hours growth. Cell counts were normalized to 50,000 cells at 24 hours to account for any plating discrepancies. Averages and standard deviations of cell number were calculated for each time point under each media condition. Experiments utilizing U0126 were performed as above, except that cells were treated after plating for 2 hours with either DMSO (vehicle) or 5 uM U0126 before addition of CXCL12. Cells were maintained in media containing DMSO or U0126 for the entirety of the experiment. For the antibody blockade experiments, cells were plated at 10,000 cells per well in triplicate in 24 well dishes and pre-incubated with mouse IgG2aκ (BD Pharmingen 555571) or mouse anti-CXCR4 (BD Pharmingen 555971) at 1 ug/ml for 1 hour prior to CXCL12 addition. Cells were maintained in media containing appropriate antibodies for the entirety of the experiment, and cells were counted at 24 and 96 hours as above.
(§4) Proliferation Assays. Cellular proliferation was assessed after plating cells at 50,000 cell/well in triplicate in six well plates and counting cells after 24 and 96 hours of incubation as described previously (see, e.g., Begley L, et al., Genes Chromosomes Cancer. 2006 February; 45(2): 136-46; herein incorporated by reference in its entirety). To assess the effects of exogenous CXCL5 on cellular proliferation, recombinant human CXCL5 (R&D Systems, 254-X) was added at the desired concentration in 2 ml SF media (or 2 ml SF media alone for control) to each well. The cells were re-fed at 24 hours growth and counted at 24 and 96 hours growth. Cell counts were normalized to 50,000 cells at 24 hours to account for any plating discrepancies. Averages and standard deviations of cell number were calculated for each time point under each media condition. For the antibody blockade experiments, 10,000 cells per well were plated in triplicate in 24 well dishes and preincubated with mouse anti-human CXCR2 (Biosource AHR1532X) or mouse antihuman CXCR4 (BD Pharmingen 555971) at 1 ug/ml for 1 hour prior to CXCL5 addition. Cells were maintained in media containing appropriate antibodies for the entirety of the experiment and were counted at 24 and 96 hours as above.

[2] = system: N1 prostate fibroblast cells; test: Proliferation assay, add back, N1 fibroblasts; settings: add back of exogenous chemokine, 96 hours
From the text: FIG. 6C describes how CXCL1, CXCL5, CXCL6, and CXCL12 stimulate N15C6 prostate epithelial cell proliferation, N1 prostate fibroblast cell proliferation, and LNCaP prostate epithelial cell proliferation compared to serum-free (SF HIE) media alone. “Add back” assays were next performed to determine whether the addition of exogenous CXCL1, CXCL5, CXCL6, and CXCL12 to defined, serum-free media induced […] or LNCaP prostate epithelial or N1 fibroblast cell proliferation. For these and all experiments utilizing N15C6 and LNCaP cells, the N15C6 and N1 cells were used between passage 35-45, and LNCaP cells between passages 25-35, for consistency. All recombinant CXC proteins were obtained from R&D systems (e.g., CXCL1, #275-GR, CXCL5, #254-X; CXCL6, #333-GC, and SDF1 alpha/CXCL12, #350-NS). Cells were plated at 50,000 cells/well in triplicate, treated for 96 hours, and counted. […] Moreover, the concentrations for CXCL1, CXCL5, CXCL6 and CXCL12 observed to be growth-stimulatory for prostate epithelial cells were similar to those secreted into the media by older prostate stromal fibroblasts (see, e.g., FIGS. 6A and 6B).

[3] = system: N15C6 prostate epithelial cells; test: Proliferation assay (cell counts), N15C6; settings: add back of exogenous chemokine, 96 hours
Procedure: as §2, §3, §4

ERK ½ = test: Western blot, ERK phosphorylation in LNCaP cells; settings: 100 ng/ml EGF or 50 μM CXCL12 (FIG. 19C)
Procedure: Western Blot Analysis. Cells were lysed, proteins resolved by electrophoresis, and electroblotting was carried out as described previously (see, e.g.; Chaib H, et al., 2001 Cancer Res. 61, 2390-2394; incorporated herein by reference in its entirety). Proteins were detected using antibodies against phospho-ERK½ (Cell Signaling #9101), total ERK½ (Cell Signaling #9102), CXCR4 (Abcam #ab2074), Elk-1 (Cell Signaling #9182), Phospho Elk-1 (Cell Signaling #9181), or beta-actin (Santa Cruz #sc-1615), in conjunction with an ECL detection system.
Western Blot and Protein Analysis. Cells were lysed, proteins resolved by electrophoresis, and electroblotting was carried out as described previously except that 20 ug protein was electrophoresed per gel lane for N15C6 cells and 100 ug protein for LNCaP cells (see, e.g., Begley L, et al., Aging Cell. 2005 December; 4(6):291-8; Begley L A, et al., J Biol. Chem. 2007 Sep. 14; 282(37):26767-74; each herein incorporated by reference in their entireties). Proteins were detected using antibodies against phospho-ERK½ (Cell Signaling #9101), total ERK½ (Cell Signaling, #9102), phospho-p65, (Rockland #100-401-264), total p65 (Rockland #100-4165), STAT3 (9139), phospho-STAT3 (9138), beta-actin (Santa Cruz #sc-1615), or tubulin (Upstate, #DM1A) in conjunction with an ECL detection system. Secondary antibodies included goat anti-rabbit (Cell Signaling, #7074) and goat anti-mouse (Santa Cruz, #SC-2005), and both were used at a 1:5000 concentration. Immunoblots shown are representative of triplicate experiments. Densitometric quantitation of immunoblot films was accomplished by scanning the original films and converting the .tiff files to grayscale. Images were inverted, and mean band intensities were measured using ImageJ (www, followed by, .nih.gov). The mean intensity of adjacent background was also measured for each band and subtracted from band intensity.

| Compound | effect on migratory/invasive response of CXCL5 (contemplated) (N15C6 cells) | effect on migratory/invasive response of CXCL5 (contemplated) (LNCaP cells) | cell proliferation compared to serum-free (SF HIE) media alone [1] | cell proliferation compared to serum-free (SF HIE) media alone [2] | cell proliferation compared to serum-free (SF HIE) media alone [3] | ERK phosphorylation (pERK) (ERK ½) |
| --- | --- | --- | --- | --- | --- | --- |
| O=c1cc(N2CCOCC2)oc2c(-c3ccccc3)cccc12 [LY294002a] | abroagates | abroagates | – | – | – | – |
| CC(C)(C)c1cc(C=C(C#N)C#N)cc(C(C)(C)C)c1O [tyrphostin A9] | abroagates | abroagates | – | – | – | – |
| CXCL1: recombinant CXC protein from R&D systems, #275-GR | – | – | stimulate | stimulate | stimulate | – |
| CXCL6: recombinant CXC protein from R&D systems, #333-GC | – | – | stimulate | stimulate | stimulate | – |
| EGF: epidermal growth factor, used at 100 ng/ml | – | – | – | – | – | minimal |
